“And” between values parts separate entries of the source, which are not always exact repeats. Identical values can stand only once.
Tests used:
[1] = Acute toxicity (LD50) in mice; details: mouse, in vivo, ip; intraperitoneal injection, male ICR mice (6 weeks old), after one week; read-out: LD₅₀
Procedure: Epigallocatechin gallate was orally administered to male ICR mice (6 weeks old). LD₅₀ of them after one week was 2314 mg/kg. In another case, epigallocatechin gallate was administered to male ICR mice (6 weeks old) by intraperitoneal injection. LD₅₀ of them after one week was 150 mg/kg.

[2] = target: S toxin of A type toxins produced by Clostridium botulinum (Clostridium botulinum, UniProt P0DPI0); details: in vivo, iv
[3] = target: M toxin of A type toxins produced by Clostridium botulinum (Clostridium botulinum, UniProt P0DPI0); details: in vivo, iv

SMILES	LD50 at 168 h [1] [mg/kg]	Remaining toxic activity (%) [2]	Remaining toxic activity (%) [3]
O=C(O[C@@H]1Cc2c(O)cc(O)cc2O[C@@H]1c1cc(O)c(O)c(O)c1)c1cc(O)c(O)c(O)c1 [epigallocatechin gallate, (-) epigallocatechin gallate]	150		
O=c1c(O)cc([C@H]2Oc3cc(O)cc(O)c3C[C@H]2O)cc2c([C@H]3Oc4cc(O)cc(O)c4C[C@H]3O)cc(O)c(O)c12 [free theaflavin]		4.4% and 6.1%	9.9% and 7.6%
